Read-outs that look alike come from different tables or passages of the source.
Assays:
[1] = molecular target: human DGKζ (Homo sapiens (Human), UniProt Q13574); test: DGKζ LIPGLO assay (extruded liposome substrate, ADP-Glo luminescence); type: biochemical; details: liposome assay; read-out: DGK zeta LIPGLO IC50
[2] = molecular target: T1, human DGKα (Homo sapiens (Human), UniProt P23743); test: DGKα LIPGLO assay (extruded liposome substrate, ADP-Glo luminescence); type: biochemical; details: liposome assay; read-out: DGK alpha LIPGLO IC50
[3] = test system: human venous whole blood (IFN-γ); test: Human whole blood IFN-γ assay; type: cell-based; details: whole blood, normalized to 3 μM reference compound as 100% activation, read-out: IFN-γ Whole Blood Normalized EC50
Protocol: Human venous whole blood (22.5 μL per well), obtained from healthy donors, was pre-treated with compounds for one hour at 37° C. in a humidified 95% air/5% CO2 incubator. The blood was stimulated with 2.5 μL anti-human CD3 and anti-CD28 mAb at a final concentration of 1 μg/mL each for 24 hours at 37° C. IFN-γ in the supernatants was measured using AlphLISA kit (Cat #AL217).

[4] = molecular target: T1, human DGKα; test: DGKα ADPGLO assay (detergent/lipid micelle substrate); type: biochemical; details: truncated DGK alpha; read-out: DGK alpha ADPGLO (Truncated) IC50
Protocol: DGK Alpha ADPGLO (Truncated) IC50 (uM)
The detergent/lipid micelle was prepared by combining 15 g phosphatidylserine (Avanti 840035P) and 1 g diacylglycerol (8008110) and dissolving into 150 mL chloroform in a 2 L round bottom flask. Chloroform was removed under high vacuum by rotary evaporation. […] The lipid/detergent solution was split into 5 mL aliquots and stored at −80° C.

Sequence of human DGKζ (Q13574 other isoform, or with tags, fused parts or gaps): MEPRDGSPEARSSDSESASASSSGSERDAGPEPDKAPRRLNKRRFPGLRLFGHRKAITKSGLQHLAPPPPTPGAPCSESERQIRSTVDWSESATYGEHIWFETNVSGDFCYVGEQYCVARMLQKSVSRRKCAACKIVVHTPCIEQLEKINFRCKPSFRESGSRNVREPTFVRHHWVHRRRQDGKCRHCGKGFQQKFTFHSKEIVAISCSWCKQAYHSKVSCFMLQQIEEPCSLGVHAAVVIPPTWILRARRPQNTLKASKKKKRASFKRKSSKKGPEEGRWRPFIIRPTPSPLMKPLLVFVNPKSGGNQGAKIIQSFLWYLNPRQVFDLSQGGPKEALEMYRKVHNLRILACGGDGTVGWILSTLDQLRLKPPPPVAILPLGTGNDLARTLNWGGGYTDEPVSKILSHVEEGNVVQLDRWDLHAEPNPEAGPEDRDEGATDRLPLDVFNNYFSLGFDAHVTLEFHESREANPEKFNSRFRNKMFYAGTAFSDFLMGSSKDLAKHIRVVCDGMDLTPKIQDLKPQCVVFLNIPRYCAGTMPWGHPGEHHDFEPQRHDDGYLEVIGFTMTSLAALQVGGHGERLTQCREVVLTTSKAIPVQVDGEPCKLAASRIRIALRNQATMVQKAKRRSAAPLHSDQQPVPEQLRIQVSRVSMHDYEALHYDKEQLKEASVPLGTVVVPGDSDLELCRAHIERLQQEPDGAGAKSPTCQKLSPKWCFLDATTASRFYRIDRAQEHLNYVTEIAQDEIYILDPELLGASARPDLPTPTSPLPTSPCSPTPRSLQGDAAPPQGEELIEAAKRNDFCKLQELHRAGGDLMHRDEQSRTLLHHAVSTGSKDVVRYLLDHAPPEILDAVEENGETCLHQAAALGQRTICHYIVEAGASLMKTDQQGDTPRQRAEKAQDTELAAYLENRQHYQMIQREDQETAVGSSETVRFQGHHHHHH
T1 sequence (P23743 whole entry, looked up): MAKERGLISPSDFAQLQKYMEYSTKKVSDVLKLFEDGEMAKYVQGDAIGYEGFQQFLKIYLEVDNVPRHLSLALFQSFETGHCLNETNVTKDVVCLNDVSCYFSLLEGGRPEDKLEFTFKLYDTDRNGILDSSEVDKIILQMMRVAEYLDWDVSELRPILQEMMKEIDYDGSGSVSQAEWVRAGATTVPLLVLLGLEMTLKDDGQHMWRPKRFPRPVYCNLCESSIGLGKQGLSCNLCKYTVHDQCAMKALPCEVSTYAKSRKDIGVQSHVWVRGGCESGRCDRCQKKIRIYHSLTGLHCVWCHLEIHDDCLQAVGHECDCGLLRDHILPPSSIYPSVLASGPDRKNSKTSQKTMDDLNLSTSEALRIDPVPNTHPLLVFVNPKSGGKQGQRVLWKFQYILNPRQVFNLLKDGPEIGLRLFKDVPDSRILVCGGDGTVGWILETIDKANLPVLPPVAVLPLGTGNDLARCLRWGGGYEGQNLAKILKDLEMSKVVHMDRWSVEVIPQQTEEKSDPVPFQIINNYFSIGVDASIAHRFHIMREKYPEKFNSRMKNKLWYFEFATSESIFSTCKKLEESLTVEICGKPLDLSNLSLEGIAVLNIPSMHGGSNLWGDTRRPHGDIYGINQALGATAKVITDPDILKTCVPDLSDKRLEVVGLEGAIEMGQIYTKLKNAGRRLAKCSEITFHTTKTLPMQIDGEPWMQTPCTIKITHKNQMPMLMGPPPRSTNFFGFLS

Row | Structure (SMILES) | IC50 [1] [nM] | IC50 [2] [nM] | EC50 [3] [nM] | EC50 ([3]; Homo sapiens) [nM] | IC50 [4] [nM]
1 | CCC(c1ccc(OC(F)(F)F)cc1)N1C[C@H](C)N(c2nc(=O)n(C)c3ccc(C#N)nc23)C[C@H]1C (single isomer, unassigned) [Example 155] | 750 | 250 |  |  | 
2 | CC(c1ccc(OC(F)(F)F)c(F)c1)N1C[C@H](C)N(c2nc(=O)n(C)c3ccc(C#N)nc23)C[C@H]1C (single isomer, unassigned) [Example 161] | 1210 | 2100 | 4010 |  | 
3 | C[C@@H]1CN(c2nc(=O)n(C)c3ccc(C#N)nc23)[C@@H](C)CN1C(c1ccc(F)cc1)c1csc(C(F)(F)F)n1 (single isomer, unassigned) [Example 170] | 330 | 1610 | 96 |  | 
4 | CC(c1ccc(F)c(F)c1)N1C[C@H](C)N(c2nc(=O)n(C)c3ccc(C#N)nc23)C[C@H]1C (single isomer, unassigned) [Example 148] | 100 | 260 | 570 |  | 
5 | CC[C@@H]1CN(c2nc(=O)n(C)c3ccc(C#N)nc23)[C@@H](C)CN1C(c1ccc(F)cc1)c1ccc(C2CC2)cn1 (single isomer, unassigned) [Example 76] | 23 | 79 | 180 |  | 
6 | C[C@@H]1CN(c2nc(=O)n(C)c3ccc(C#N)nc23)[C@@H](C)CN1C(c1ccc(F)cc1)c1nc(C2CC2)cs1 (single isomer, unassigned) [Example 158] | 570 | 660 | 1580 |  | 
7 | CC[C@H]1CN(C(C)c2ccc(OC)cc2)[C@H](CC)CN1c1nc(=O)n(C)c2ccc(C#N)nc12 (single isomer, unassigned) [Example 16] | 37 | 45 |  |  | 
8 | CC[C@H]1CN(C(C)c2ccc(OC(C)C)cc2)[C@H](CC)CN1c1nc(=O)n(C)c2ccc(C#N)nc12 (single isomer, unassigned) [Example 19] | 3100 | 4050 |  | 2060 | 
9 | CC[C@H]1CN(C(C)c2ccc(OC(C)C)cc2)[C@H](CC)CN1c1nc(=O)n(C)c2ccc(C#N)nc12 (single isomer, unassigned) [Example 18] | 25 | 30 |  |  | 
10 | C[C@@H]1CN(c2nc(=O)n(C)c3ccc(C#N)nc23)[C@@H](C)CN1C(c1ccc(OC(F)(F)F)cc1)c1cc(C2CC2)on1 (single isomer, unassigned) [Example 164] | 340 | 120 |  | 650 | 
11 | CC[C@@H]1CN(c2nc(=O)n(C)c3ccc(C#N)nc23)[C@@H](C)CN1C(C)c1ccc(OCC2CC2)cc1F (single isomer, unassigned) [Example 69] | 14 | 210 | 33 |  | 
12 | COC[C@@H]1CN(c2nc(=O)n(C)c3ccc(C#N)nc23)[C@@H](C)CN1C(c1ccc(F)cc1)c1ccc(C(F)(F)F)cn1 (single isomer, unassigned) [Example 179] | 22 | 81 | 55 |  | 
13 | CC[C@H]1CN(C(c2ccc(F)cc2)c2ccon2)[C@H](CC)CN1c1nc(=O)n(C)c2ccc(C#N)nc12 (single isomer, unassigned) [Example 34] | 310 | 620 | 420 |  | 
14 | CC[C@H]1CN(C(C)c2ccc(C3CC3)cc2)[C@H](CC)CN1c1nc(=O)n(C)c2ccc(C#N)nc12 (single isomer, unassigned) [Example 28] | 2650 | 1570 | 2040 |  | 
15 | CCC(c1ccc(OC(F)(F)F)cc1F)N1C[C@H](CC)N(c2nc(=O)n(C)c3ccc(C#N)nc23)C[C@H]1CC (stereo partly drawn) [Example 11] | 60 | 5 |  |  | 
16 | CC[C@H]1CN(C(C)c2ccc(OC(F)(F)F)c(F)c2)[C@H](CC)CN1c1nc(=O)n(C)c2ccc(C#N)nc12 (single isomer, unassigned) [Example 31] | 960 | 1700 | 270 |  | 
17 | CC[C@H]1CN(C(C)c2ccc(OC(F)(F)F)cc2)[C@H](CC)CN1c1nc(=O)n(C)c2ccc(C#N)nc12 (single isomer, unassigned) [Example 9] | 48 | 7 |  |  | 

Row | Structure (SMILES) | IC50 [1] [nM] | IC50 [2] [nM] | EC50 [3] [nM] | EC50 ([3]; Homo sapiens) [nM] | IC50 [4] [nM]
18 | CC(c1ccc(OC(F)F)cc1)N1C[C@H](C)N(c2nc(=O)n(C)c3ccc(C#N)nc23)C[C@H]1C (single isomer, unassigned) [Example 156] | 120 | 10 |  |  | 
19 | CC[C@H]1CN(C(C)c2ccc(C(F)(F)F)cc2F)[C@H](C)CN1c1nc(=O)n(C)c2ccc(C#N)nc12 (stereo partly drawn) [Example 119, 4-((2S,5R)-2-ethyl-4-(1-(2-fluoro-4-(trifluoromethyl)phenyl)ethyl)-5-methylpiperazin-1-yl)-1-methyl-2-oxo-1,2-dihydropyrido[3,2-d]pyrimidine-6-carbonitrile] | 730 | 650 |  |  | 
20 | CC[C@H]1CN(C(C)c2ccc(C(F)(F)F)cc2N2CCOCC2)[C@H](CC)CN1c1nc(=O)n(C)c2ccc(C#N)nc12 (stereo partly drawn) [Example 195, 4-((2S,5R)-2,5-diethyl-4-(1-(2-morpholino-4-(trifluoromethyl)phenyl)ethyl)piperazin-1-yl)-1-methyl-2-oxo-1,2-dihydropyrido[3,2-d]pyrimidine-6-carbonitrile] | 5070 | 125000 |  |  | 
21 | CCC(c1ccc2c(c1)OC(F)(F)O2)N1C[C@H](C)N(c2nc(=O)n(C)c3ccc(C#N)nc23)C[C@H]1CC (single isomer, unassigned) [Example 80] | 1180 | 2160 |  |  | 
22 | CC(c1ccc(F)cc1)N1C[C@H](C)N(c2nc(=O)n(C)c3ccc(C#N)nc23)C[C@H]1C (single isomer, unassigned) [Example 128] | 110 | 26 |  |  | 
23 | CC[C@H]1CN(C(c2ccc(F)cc2)c2cccc(C(F)(F)F)n2)[C@H](C)CN1c1nc(=O)n(C)c2ccc(C#N)nc12 (stereo partly drawn) [Example 120, 4-((2S,5R)-2-ethyl-4-((4-fluorophenyl)(6-(trifluoromethyl)pyridin-2-yl)methyl)-5-methylpiperazin-1-yl)-1-methyl-2-oxo-1,2-dihydropyrido[3,2-d]pyrimidine-6-carbonitrile] | 740 | 1710 |  |  | 
24 | CC[C@H]1CN(C(C)c2ccc(OC(F)(F)F)cc2)[C@H](CC)CN1c1nc(=O)n(C)c2ccc(C#N)nc12 (single isomer, unassigned) [Example 10] | 970 | 370 |  |  | 
25 | CC[C@H]1CN(C(C)c2ccc(C(F)(F)F)cc2F)[C@H](C)CN1c1nc(=O)n(C)c2ccc(C#N)nc12 (stereo partly drawn) [Example 118, 4-((2S,5R)-2-ethyl-4-(1-(2-fluoro-4-(trifluoromethyl)phenyl)ethyl)-5-methylpiperazin-1-yl)-1-methyl-2-oxo-1,2-dihydropyrido[3,2-d]pyrimidine-6-carbonitrile] | 16 | 95 |  |  | 
26 | CC[C@H]1CN(C(C)c2ccc(OC(F)(F)F)cc2)[C@H](C)CN1c1nc(=O)n(C)c2ccc(C#N)nc12 (stereo partly drawn) [Example 122, 4-((2S,5R)-2-ethyl-5-methyl-4-(1-(4-(trifluoromethoxy)phenyl)ethyl)piperazin-1-yl)-1-methyl-2-oxo-1,2-dihydropyrido[3,2-d]pyrimidine-6-carbonitrile] | 1960 | 32 |  |  | 
27 | CC(c1cc(F)c(F)c(F)c1)N1C[C@H](C)N(c2nc(=O)n(C)c3ccc(C#N)nc23)C[C@H]1C (single isomer, unassigned) [Example 138] |  | 2410 |  |  | 
28 | CC[C@@H]1CN(c2nc(=O)n(C)c3ccc(C#N)nc23)[C@@H](C)CN1C(C)c1ccc2c(c1)OC(F)(F)O2 (single isomer, unassigned) [Example 72] |  | 1500 | 790 |  | 
29 | CC[C@@H]1CN(c2nc(=O)n(C)c3ccc(C#N)nc23)[C@@H](C)CN1C(c1ccc(F)cc1)c1nc(C2CC2)cs1 (single isomer, unassigned) [Example 50] | 37 | 110 |  |  | 
30 | CC[C@H]1CN(C(c2ccc(F)cc2)c2cccc(C(F)(F)F)n2)[C@H](C)CN1c1nc(=O)n(C)c2ccc(C#N)nc12 (stereo partly drawn) [Example 121, 4-((2S,5R)-2-ethyl-4-((4-fluorophenyl)(6-(trifluoromethyl)pyridin-2-yl)methyl)-5-methylpiperazin-1-yl)-1-methyl-2-oxo-1,2-dihydropyrido[3,2-d]pyrimidine-6-carbonitrile] | 1650 | 1940 |  |  | 
31 | CC[C@@H]1CN(c2nc(=O)n(C)c3ccc(C#N)nc23)[C@@H](C)CN1C(C)c1ccc(OCC2CC2)cc1 (single isomer, unassigned) [Example 67] | 33 | 210 |  |  | 
32 | CC[C@@H]1CN(c2nc(=O)n(C)c3ccc(C#N)nc23)[C@@H](C)CN1C(c1ccc(F)cc1)c1csc(C(F)(F)F)n1 (stereo partly drawn) [Example 297, 4-((2S,5R)-5-ethyl-4-((4-fluorophenyl)(2-(trifluoromethyl)thiazol-4-yl)methyl)-2-methylpiperazin-1-yl)-1-methyl-2-oxo-1,2-dihydropyrido[3,2-d]pyrimidine-6-carbonitrile] | 110 |  | 53 |  | 110
33 | CCC(c1ccc(OC(F)F)cc1)N1C[C@H](C)N(c2nc(=O)n(C)c3ccc(C#N)nc23)C[C@H]1CC (single isomer, unassigned) [Example 77] | 14 | 36 |  |  | 
